Read-outs that look alike come from different tables or passages of the source.
Columns and labels:
[1] = tested on: A704; assay: Cell Proliferation Assay ±NA, A704; assay type: cell-based; conditions: Homo sapiens, A704, kidney, treatment time 72 hr
Protocol: (§1) The purpose of this assay is to measure the ability of a compound to inhibit proliferation of endometrium, kidney, adrenal gland, and autonomic ganglia cancer cell lines dependent on the NAMPT-mediated NAD^+ formation in the presence or absence of NA (10 μM) in vitro. One day before the planned initiation of compound treatment portion of the assay, one vial of assay ready frozen cells is thawed, and the cells are grown overnight in the media as shown in Table 3 under 5% CO2 at 37° C. Then, the cell layer is briefly rinsed with 0.25% (w/v) Trypsin-0.038% (w/v) EDTA solution followed with the addition of 3.0 ml of Trypsin-EDTA solution. Once the cell layer is dispersed, 8.0 ml of complete growth medium (Table 3) is added and cells are aspirated by gently pipetting. The cell suspension is transferred to a centrifuge tube and centrifuged at 800-1000 rpm for 3-5 minutes. The supernatant is discarded using a vacuum pump. The cell pellet is suspended in a complete medium by gently pipetting. The cell numbers are counted and adjusted to the appropriate density (Table 3). […] The bottom of each plate is pasted with a white back seal and luminescence is recorded using a Flexstation 3 with the following settings: Luminescence and integration time of 500 ms.

[2] = tested on: TGW; assay: Cell Proliferation Assay ±NA, TGW; assay type: cell-based; conditions: autonomic ganglia, treatment time 48 hr
Protocol: as §1

[3] = tested on: GOTO; assay: Cell Proliferation Assay ±NA, GOTO; assay type: cell-based; conditions: autonomic ganglia, treatment time 96 hr
Protocol: as §1

[4] = tested on: A498; assay: Cell Proliferation Assay ±NA, A498; assay type: cell-based; conditions: Homo sapiens, A498, kidney, treatment time 48 hr
Protocol: as §1

[5] = tested on: ACHN; assay: Cell Proliferation Assay ±NA, ACHN; assay type: cell-based; conditions: Homo sapiens, kidney, treatment time 72 hr
Protocol: as §1

[6] = tested on: AN3-CA; assay: Cell Proliferation Assay ±NA, AN3-CA; assay type: cell-based; conditions: Homo sapiens, endometrium, treatment time 72 hr
Protocol: as §1

[7] = tested on: TK10; assay: Cell Proliferation Assay ±NA, TK10; assay type: cell-based; conditions: Homo sapiens, TK-10, TK10, kidney, treatment time 72 hr
Protocol: as §1

[8] = molecular target: NAMPT (Homo sapiens, UniProt P43490); assay: NAMPT Biochemical Assay (NMN formation by LC-MS); conditions: relative IC50; 1.5 nM NAMPT, 2 hours at room temperature; read-out: IC50 (inhibition of NAMPT catalytic activity, NMN formation)
Protocol: The purpose of this assay is to measure the ability of a compound to inhibit NAMPT catalytic activity. Reaction mixtures (25 μL) containing 50 mM HEPES at pH 7.5, 50 mM NaCl, 1 mM DTT, 0.005% TRITON® X-100, 1.5 μM phosphoribosyl-pyrophosphate, 0.5 μM nicotinamide (NAM), 1.5 nM NAMPT, 2.5 mM ATP, 1.25 mM MgCl2, 4% (v/v) DMSO and compounds after a ten-point series dilution from either 1 μM to 50 pM or 0.1 μM to 5 pM (final) are prepared. The reaction mixtures are incubated at room temperature for 2 hours. The reaction is terminated by the addition of ACN (25 μL) containing nicotinamide mononucleotide-d4 (NMN-d4) as an internal standard (final concentration: 5 μM). […] A positive control group (enzyme and DMSO, but no compound) is used to measure minimum inhibition (0%) of NMN formation. Percent inhibition of compound treated groups is calculated relative to the minimum inhibition group. The relative IC50 for each compound is calculated from a dose response study and is the concentration necessary to achieve 50% inhibition at this time point using the above disclosed ranges of 1 μM to 50 pM (final). The data generated from the dose-response studies is fit to a four-parameter logistic equation using ACTIVITYBASE 4.0 Equation 205.

[9] = tested on: 786-0; assay: Cell Proliferation Assay ±NA, 786-0; assay type: cell-based; conditions: Homo sapiens, 786-0, kidney, treatment time 48 hr
Protocol: as §1

[10] = tested on: NCI-H295; assay: Cell Proliferation Assay ±NA, NCI-H295; assay type: cell-based; conditions: NCI-H295, adrenal gland, treatment time 144 hr
Protocol: as §1

[11] = tested on: HEC-1-A; assay: Cell Proliferation Assay ±NA, HEC-1-A; assay type: cell-based; conditions: Homo sapiens, endometrium, treatment time 72 hr, tested in a growth medium containing nicotinic acid
Protocol: as §1

[12] = NA 0.0 μM, read-out: IC50 (μM) NA (0.0 μM)
[13] = NA 10 μM, read-out: IC50 (μM) NA (10 μM)

Sequence of NAMPT (P43490 whole entry): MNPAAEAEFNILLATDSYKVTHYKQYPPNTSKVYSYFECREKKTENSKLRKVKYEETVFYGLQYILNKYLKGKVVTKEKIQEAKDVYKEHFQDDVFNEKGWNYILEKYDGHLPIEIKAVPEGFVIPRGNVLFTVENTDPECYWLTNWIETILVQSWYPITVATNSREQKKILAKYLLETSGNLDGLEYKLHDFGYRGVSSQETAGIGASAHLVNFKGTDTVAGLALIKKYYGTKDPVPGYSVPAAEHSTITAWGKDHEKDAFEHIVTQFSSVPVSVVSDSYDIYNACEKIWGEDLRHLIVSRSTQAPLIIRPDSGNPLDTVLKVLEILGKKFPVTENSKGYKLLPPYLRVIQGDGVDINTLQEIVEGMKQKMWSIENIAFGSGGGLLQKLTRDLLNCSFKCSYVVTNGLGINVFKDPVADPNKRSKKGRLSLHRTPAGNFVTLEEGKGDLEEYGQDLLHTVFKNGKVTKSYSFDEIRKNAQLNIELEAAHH

CC(C)(O)CS(=O)(=O)Nc1ccc2c(c1)CCN(C(=O)COc1cccnc1)C2 [Example 1, 2-Hydroxy-2-methyl-N-[2-[2-(3-pyridyloxy)acetyl]-3,4-dihydro-1H-isoquinolin-6-yl]propane-1-sulfonamide]
IC50 [1, 12]: 0.37 µM
IC50 [1, 13]: > 2 µM
IC50 [2, 12]: 0.01 µM
IC50 [2, 13]: 0.01 µM
IC50 [3, 12]: 0.02 µM
IC50 [3, 13]: 0.02 µM
IC50 [4, 12]: 1.84 µM
IC50 [4, 13]: > 2 µM
IC50 [5, 12]: 0.11 µM
IC50 [5, 13]: > 2 µM
IC50 [6, 12]: 0.02 µM
IC50 [6, 13]: 0.02 µM
IC50 [7, 12]: 0.22 µM
IC50 [7, 13]: 0.21 µM
IC50 [8]: 3.1 nM
IC50 [9, 12]: 0.07 µM
IC50 [9, 13]: 0.04 µM
IC50 [10, 12]: 0.1 µM
IC50 [10, 13]: 0.06 µM
IC50 [11, 12]: > 2 µM
IC50 [11, 13]: > 2 µM

COCCS(=O)(=O)Nc1ccc2c(c1)CCN(C(=O)COc1cccnc1)C2 [Example 2, 2-Methoxy-N-[2-[2-(3-pyridyloxy)acetyl]-3,4-dihydro-1H-isoquinolin-6-yl]ethanesulfonamide]
IC50 [8]: 1.1 nM

— patent US20160229835A1, “NOVEL PYRIDYLOXYACETYL TETRAHYDROISOQUINOLINE COMPOUNDS USEFUL AS NAMPT INHIBITORS” (ELI LILLY AND COMPANY, priority 2013, published 2016)
